For test [1], the system named is MX-1 human breast carcinoma. The class given is in vivo.
From the text: Methods for MX1 Human Breast Cancer Model
Mice/Husbandry: Female nu/nu mice (Harlan), 13 weeks of age (at pair-match; Day 1), were fed ad libitum water and an irradiated standard rodent diet. Mice were housed in static microisolators on a 12-hour light cycle. The animal care and use program specifically complies with recommendations of the Guide for Care and Use of Laboratory Animals with respect to restraint, husbandry, surgical procedures, feed and fluid regulation, and veterinary care is AAALAC accredited.
Tumor Implantation: Mice were implanted subcutaneously with 1 mm^3 MX-1 human breast carcinoma fragments in the flank. Tumors were monitored initially twice weekly, and then daily as the neoplasms reached the desired size, approximately 100 mg. […] Estimated tumor weight was calculated using the formula:
Tumor Weight(mg)=w^2×L divided by 2
where w=width and L=length in mm of a MX-1 carcinoma.
(§1) Tumors were grown to a volume of approximately 100 mm^3 prior to dosing.
This example evaluates the effects of combined treatment of Compound 1 and Docetaxel on efficacy and toxicity in a human breast cancer model. Tumors were grown to a volume of approximately 100 mm^3 prior to dosing.
This example evaluates the effects of combined treatment of Compound 1 and 5-FU on efficacy and toxicity in a human breast cancer model
as §1
This example evaluates the effects of combined treatment of Compound 1 and Doxorubicin Hydrochloride on efficacy and toxicity in a human breast cancer model.
Tumors were grown to a volume of approximately 100 mm^3 prior to dosing. […] (see FIG. 6).

The subject of a further test is NCI-H526 SCLC cells. In words: NCI-H526 small cell lung carcinoma subcutaneous xenograft model. Format: in vivo, human (xenograft in athymic nu/nu mice). As to conditions: dosing began day 18 after implantation. In general terms: In xenograft studies the graft and the host belong to different species.
The subject of the next test is MDA-MB-435 tumor cells. Put plainly: MDA-MB-435 orthotopic human breast carcinoma bone marrow colonization model (survival). Format: in vivo, human (xenograft in nu/nu mice). Particulars: vehicle 46 days. The protocol:
Methods for the MDA-MB-435 Human Breast Cancer Model
1×10^5 MDA-MB-435 tumor cells were injected into the left cardiac ventricle of female nu/nu mice (n=10). Mice were monitored for weight loss (>20%) and hind limb paralysis as an indicator of bone marrow colonization.
This example evaluates the effects of combined treatment of Compound 1 and Docetaxel on efficacy and toxicity in a human breast cancer model. Efficacy is indicated by improved survival, which, in turn, is indicated by hind-limb paralysis or weight loss (>20%) due to bone marrow colonization of tumor cells.
Tumor cells were injected into the mammary fat pad of female nu/nu mice and mice were monitored for weight loss (>20%) and hind limb paralysis as an indicator of bone marrow colonization of tumor cells.
Tumor cells were injected into the left cardiac ventricle of female nu/nu mice and mice were monitored for weight loss (>20%) and hind limb paralysis as an indicator of bone marrow colonization

The subject of test [2] is LS174t human colon carcinoma. Format: in vivo. As to conditions: Day 23. The method, then: Methods for LS174t Human Colon Cancer Model
(§2) 1×10^5 to 1×10^6 tumor cells were injected into the subcutaneous region of the hind flank of female nu/nu mice (n=10). Tumor growth was monitored twice a week for 2-4 weeks by caliper measurement.
as §1

For test [3], the system named is HT-29 human colon carcinoma. Format: in vivo. As to conditions: Compound 1 20 mg/kg PO QD to end, monotherapy, Day 38. The protocol:
Methods for HT-29 Human Colon Cancer Model
as §2, §1

Several values for one entry are separate records, joined by “and”; a condition that tells them apart may be missing. Identical values can stand only once. Counter-ions that a name gives are not always drawn. Like-named read-outs stand apart in the source and are kept apart here.

Experimental for NCI-H526 SCLC cells: Methods for NCI-H526-Human Small Cell Lung Carcinoma Model
1×10^5 to 1×10^6 tumor cells were injected into the subcutaneous region of the hind flank of female nu/nu mice (n=10). Tumor growth was monitored twice a week for 2-4 weeks by caliper measurements.
NCI-H526 SCLC cells were cultured using standard technique in RPMI 1640 supplemented with 10% fetal bovine serum, 2 mM glutamine, 1 mM sodium pyruvate (Life Technologies Inc., Gaithersburg, Md.), and maintained routinely in a humidified chamber at 37° C. and 5% carbon dioxide.
Cells to be implanted in mice were harvested from cell culture flasks during exponential growth, washed once with sterile phosphate-buffered saline (PBS), counted, and resuspended in PBS to a suitable concentration prior to implantation.
Nine to twelve week old female athymic nu/nu mice purchased from Charles River Laboratories (Wilmington, Mass.) were used.
Mice received subcutaneous injections into the hind flank on Day 0 with 5×10^6 NCI-H526 cells. Subcutaneous tumor-bearing athymic mice (250-300 mm^3 tumor volume) were treated either PO once daily with Compound 1 to the end of the study, intraperitoneally once daily with Cisplatin for the first 5 days, or a combination of the two. […] Tumor growth was measured twice weekly using Vernier calipers for the duration of the treatment. Tumor volumes were calculated as the product of length× width× height.

Take `COc1cccc2c1C(=O)c1c(O)c3c(c(O)c1C2=O)C[C@@](O)(C(=O)CO)C[C@@H]3O[C@H]1C[C@H](N)[C@H](O)[C@H](C)O1` [Doxorubicin Hydrochloride]: in test [1] (Biological Example 4, Doxorubicin Hydrochloride 4 mg/kg IV QOD x 3, monotherapy, Day 14), the % Inhibition (commonly the drop in the measured response relative to a control, in per cent) is given as 48%.
`N.N.[Cl][Pt][Cl]` [Cisplatin, reference compound]: the “Day tumor reached 900 mm^3” value in the test with NCI-H526 SCLC cells (Cisplatin 1.5 mg/kg IP QD x 5, monotherapy) is 48 days.
`CC(=O)O[C@@]12CO[C@@H]1C[C@H](O)[C@@]1(C)C(=O)[C@H](O)C3=C(C)[C@@H](OC(=O)[C@H](O)[C@@H](NC(=O)OC(C)(C)C)c4ccccc4)C[C@@](O)([C@@H](OC(=O)c4ccccc4)[C@H]21)C3(C)C` [Docetaxel]: the “% Inhibition” value in test [1] (Biological Example 1, Docetaxel 10 mg/kg IV QWK x 3, monotherapy, Day 16) was determined as 60%; in test [1] (Biological Example 1, Docetaxel 15 mg/kg IV QWK x 3, monotherapy, Day 16), 95%; in test [1] (Biological Example 2, Docetaxel 10 mg/kg IV QWK x 3, monotherapy, Day 14), 36%; in test [1] (Biological Example 2, Docetaxel 15 mg/kg IV QWK x 3, monotherapy, Day 17), 90%. Further, the “Median Survival” value with MDA-MB-435 tumor cells (Docetaxel 5 mg/kg IP QWK x 3, monotherapy) worked out at 52 days.
For the molecule `CCN(CC)CCNC(=O)c1c(C)[nH]c(/C=C2\C(=O)Nc3ccc(F)cc32)c1C` [Compound 1, 5-(5-Fluoro-2-oxo-1,2-dihydroindol-3-ylidenemethyl)-2,4-dimethyl-1H-pyrrole-3-carboxylic acid(2-diethylamino-ethyl)amide], the “% Inhibition” value in test [1] (Biological Example 1, Compound 1 40 mg/kg PO QD to end, monotherapy, Day 20, 40 mg/kg) was 52% and 53%; in test [1] (Biological Example 2, Compound 1 40 mg/kg PO QD to end, monotherapy, Day 17), 63%; in test [1] (Biological Example 3, Compound 1 40 mg/kg PO QD to end, monotherapy, Day 15), 57%; in test [1] (Biological Example 4, Compound 1 40 mg/kg PO QD to end, monotherapy, Day 14), 62%; in test [2] (Compound 1 40 mg/kg PO QD to end, monotherapy, 40 mg/kg), 68% and 67.9%; in test [3] it was 78% and 77.8%. In the test with NCI-H526 SCLC cells (Compound 1 40 mg/kg PO QD, monotherapy), the “Day tumor reached 900 mm^3” value was 41 days. The “Median Survival” value with MDA-MB-435 tumor cells (Compound 1 40 mg/kg PO QD to end, monotherapy) is recorded as 52 days.
Take `CCc1c2c(nc3ccc(OC(=O)N4CCC(N5CCCCC5)CC4)cc13)-c1cc3c(c(=O)n1C2)COC(=O)[C@]3(O)CC` [CPT-11, Irinotecan, reference compound]: the “% Inhibition” value in test [2] (CPT-11 100 mg/kg IP QWK x 3, monotherapy, 100 mg/kg) was 64% and 63.6%.
Consider `O=c1[nH]cc(F)c(=O)[nH]1` [Compound 5-FU, 5-Fluorouracil], for which the “% Inhibition” value in test [1] (Biological Example 3, 5-FU 100 mg/kg IV QWK x 3, monotherapy, Day 15) was 45%.

Source of the values: patent US20040152759A1, “Combination administration of an indolinone with a chemotherapeutic agent for cell proliferation disorders” (priority 2002, published 2004).
